{"source": "patent US20190321427A1", "about": "“Compositions to Treat Anal Fissures” (G&S Laboratories, Inc., priority 2018, published 2019)", "origin": "cited, not measured here", "tested_on": "anal fissures", "note": "Where two headings read alike, the source gives them in different places.", "data": [{"compound": "O=[N+]([O-])OCC(CO[N+](=O)[O-])O[N+](=O)[O-]", "note": "[nitroglycerin]", "values": [{"measurement": "healing rates", "setting": "anal fissure, literature (Poh, 2010)", "result": "40-70%"}, {"measurement": "common side effect", "setting": "topical treatment of anal fissure", "result": "headache"}]}, {"compound": "botulinum toxin", "values": [{"measurement": "healing rates", "setting": "in vivo", "result": "30-96%"}]}]}
